“And” between values parts separate entries of the source, which are not always exact repeats. Identical values can stand only once. Like-named read-outs stand apart in the source and are kept apart here.
How the values were obtained:
[1] = Liver microsomes stability with NADPH, rat
[2] = molecular target: T1, human 5-HT2A (h5-HT2A) receptor (Homo sapiens, UniProt P28223); experiment: FLIPR assay, human 5-HT2A receptor under agonist mode; type: cell-based
T1 construct: expressed in transfected cells; kept under G418 and hygromycin B selection
T1 sequence (P28223 whole entry): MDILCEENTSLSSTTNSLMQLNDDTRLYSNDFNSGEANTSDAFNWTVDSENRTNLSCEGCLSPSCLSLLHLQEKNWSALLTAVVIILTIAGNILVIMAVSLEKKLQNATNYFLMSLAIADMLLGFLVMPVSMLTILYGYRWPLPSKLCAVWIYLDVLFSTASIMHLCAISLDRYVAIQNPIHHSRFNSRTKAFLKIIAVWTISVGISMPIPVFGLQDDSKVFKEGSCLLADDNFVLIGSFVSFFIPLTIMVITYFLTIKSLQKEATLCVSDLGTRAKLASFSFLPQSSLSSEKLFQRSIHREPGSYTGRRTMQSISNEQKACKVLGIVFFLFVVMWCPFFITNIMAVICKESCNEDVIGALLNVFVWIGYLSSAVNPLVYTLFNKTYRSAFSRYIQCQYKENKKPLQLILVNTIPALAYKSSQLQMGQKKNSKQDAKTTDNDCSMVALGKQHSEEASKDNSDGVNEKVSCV
Method: I. Assessment of the Activated Effect of Compounds of Formula I-B Targeting on Human 5-HT2A (h5-HT2A) Receptor Under Agonist Mode:
1. The cells were cultured in cell culture medium (DMEM containing 10% FBS, 1× penicillin-streptomycin 300 μg/ml G418 and 100 μg/ml hygromycin B) at 37° C., 5% (v/v) CO2.
2. One day before the assays, the cells were detached using TrypLE™ Express and count cells using cell counter.
3. 20000 cells/well were seeded in 30 μl/well culture medium to a 384-well cell plate and incubated the cells overnight at 37° C., 5% (v/v) CO2.
4. On the assay day, 2×dye solution was prepared following the manual of the FLIPR® Calcium 6 Assay Kit: i. The dye was diluted with assay buffer (20 mM HEPES in 1×HBSS, PH7.4); ii. probenecid was added to the final concentration of 5 mM; iii. Vortexed vigorously for 1-2 minutes.
5. Medium was removed from cell plate by flicking the cell plate on towel papers.
7. The cell plate was placed on plate shaker, the plate agitated at 600 rpm for 2 minutes. The plate was incubated at 37° C. for 2 hours followed by additional 15-minute incubation at 25° C.
8. 3×compound was prepared in assay buffer: a. Reference compounds were diluted to required concentration with DMSO. The compounds were added to a 384-well compound plate; b. Serial dilutions were performed; c. 10 mM test compounds were added to the compound plate, 3-fold serial dilutions were performed. […] 20 μl/well assay buffer was added to the compound plate; f.
9. The cell plate, compound plate and tips were placed into FLIPR, 10 μl of 3× compound was transferred to the cell plate per well with FLIPR.
i. The normalized fluorescence reading (RFU) was calculated as shown follow, while Fmax and Fmin stand for maximum and minimum of calcium signal during defined time window: RFU=Fmax−Fmin
ii. The percentage activation was calculated by using following equation: […]
iii. EC50 was calculated by fitting % activation against log of compound concentrations with Hill equation using Xlfit.

[3] = Liver microsomes stability with NADPH, human
Method: (§1) The objective of this study was to estimate in vitro metabolic stability of representative compounds of the application in pooled human and male mouse liver microsomes. The concentrations of parent compounds in reaction systems were evaluated by LC-MS/MS for estimating the stability in pooled human and male mouse liver microsomes. The in vitro intrinsic clearances of test compounds were determined as well.
(§2) A master solution in the “Incubation Plate” containing phosphate buffer, ultra-pure H2O, MgCl2 solution and liver microsomes was made according to Table 3. The mixture was pre-warmed at 37° C. water bath for 5 minutes.
(§3) 40 μL of 10 mM NADPH solution was added to each well. The final concentration of NADPH was 1 mM. The negative control samples were prepared by replacing NADPH with 40 μL of ultra-pure H2O. Samples were prepared in duplicate. Negative controls were prepared in singlet.
(§4) The reaction was started with the addition of 4 μL of 200 μM test compounds or control compounds to each master solution to get the final concentration of 2 μM. This study was performed in duplicate.
(§5) Aliquots of 50 μL were taken from the reaction solution at 0, 15, 30, 45 and 60 minutes. The reaction solutions were stopped by the addition of 4 volumes of cold methanol with IS (100 nM alprazolam, 200 nM imipramine, 200 nM labetalol and 2 μM ketoprofen). Samples were centrifuged at 3,220 g for 40 minutes. Aliquot of 90 μL of the supernatant was mixed with 90 μL of ultra-pure H2O and then was used for LC-MS/MS analysis.
(§6) LC/MS analysis was performed for all samples from this study using a Shimadzu liquid chromatograph separation system equipped with degasser DGU-20A5R; solvent delivery unit LC-30AD; system controller SIL-30AC; column oven CTO-30A; CTC Analytics HTC PAL System; Mass spectrometric analysis was performed using an Triple Quad™ 5500 instrument.
(§7) All calculations were carried out using Microsoft Excel. Peak area ratios of test compound to internal standard (listed in the below table) were determined from extracted ion chromatograms.
(§8) All calculations were carried out using Microsoft Excel. Peak areas were determined from extracted ion chromatograms. The slope value, k, was determined by linear regression of the natural logarithm of the remaining percentage of the parent drug vs. incubation time curve.
(§9) The in vitro half-life (in vitro t1/2) was determined from the slope value:
(§10) Conversion of the in vitro t1/2 (min) into the in vitro intrinsic clearance (in vitro CLint, in μL/min/mg proteins) was done using the following equation (mean of duplicate determinations): […]

[4] = In vivo pharmacokinetics in male Sprague Dawley rats; set-up: species or system rat; details: 0.992 mg/kg s.c.; for AUC(0-t): read-out: AUC0-tlast
Description: Example 13 (I-B-1): In Vivo Assessment of the Pharmacokinetics in Mice and Rats
5. PK Analysis • i. Analysis software: Phoenix® WinNonlin® 8.2 (Pharsight, Certara, Mountainview, CA) • ii. Analysis methods: non-compartmental analysis, linear up/log down trapezoidal rule • iii. PK parameters: C0, t1/2, AUC0-tlast. AUC0-∞, CL, Vss, MRT, tmax(po), Cmax(po), F, as appropriate

human 5-HT2A = human 5-HT2A (Homo sapiens, UniProt P28223); experiment: Radioligand binding assay on human 5-HT2A receptor ([3H]-ketanserin)
Sequence of human 5-HT2A (P28223 whole entry): as above
Method: i. The assay buffer was prepared following the table below;
iii. Prepared (v/v) DMSO as follows: a. […] The plates were sealed and incubated at 4° C. for 3 hrs;
iv. Preparation of assay plates: a.
vi. The plates were sealed and incubated at 27° C. for 90 min.

[5] = Liver microsomes stability with NADPH, mouse
Method: as §1, §2, §3, §4, §5, §6, §7, §8, §9, §10

What does the source list for `[2H]C([2H])(c1c[nH]c2ccccc12)[C@H]1CCCN1C([2H])([2H])[2H]` [I-B-1, (R)-3-((1-(methyl-d3)pyrrolidin-2-yl)methyl-d2)-1H-indole]?
Remaining Percentage (%) after 60 min Rat ([1]; rat liver microsomes, with NADPH, 2 μM): 32.40%; half-life at 2 μM ([1]; rat, microsomes): 0.615 h; microsomal CLint at 2 μM ([1]; rat, microsomes): 37.6 µL/min/mg; EC50 [2]: 100 to 1000 nM; Remaining Percentage (%) after 60 min Human ([3]; human liver microsomes, with NADPH, 2 μM): 82.74%; half-life at 2 μM ([3]; human, microsomes): 3.66 h; microsomal CLint at 2 μM ([3]; human, microsomes): 6.32 µL/min/mg; F ([4]; Mean ± SD): 133 ± 10.1%; AUC0-tlast ([4]; individual animals): 137 ng·h/mL and 133 ng·h/mL; AUC(0-inf) ([4]; individual animals): 154 ng·h/mL and 133 ng·h/mL; Apparent t1/2 ([4]; individual animals): 0.990 h and 26.6^a h and 1.18 h; Cmax ([4]; individual animals): 140 ng/mL and 137 ng/mL and 64.6 ng/mL; F ([4]; individual animals): 132% and 144% and 124%; MRT0-inf ([4]; individual animals): 1.07 h and 9.03 h and 1.40 h; tmax ([4]; individual animals): 0.0833 h and 1.00 h; AUC(0-inf) ([4]; male, Sprague Dawley, rat, plasma, sc, 0.992 mg/kg, Mean ± SD, read-out: AUC0-inf): 143 ± 10.8 ng·h/mL; AUC(0-t) ([4]; male, Sprague Dawley, rat, plasma, sc, 0.992 mg/kg, Mean ± SD): 136 ± 3.91 ng·h/mL; Cmax ([4]; male, Sprague Dawley, rat, plasma, sc, 0.992 mg/kg, Mean ± SD, read-out: Cmax): 114 ± 42.7 ng/mL; MRT inf ([4]; male, Sprague Dawley, rat, plasma, sc, 0.992 mg/kg, Mean ± SD, read-out: MRT0-inf): 3.83 ± 4.5 h; tmax ([4]; male, Sprague Dawley, rat, plasma, sc, 0.992 mg/kg, Mean ± SD, read-out: tmax): 0.25 h; AUC(0-inf) ([4]; male, Sprague Dawley, rat, plasma, sc, 0.992 mg/kg, individual animals, read-out: AUC0-inf): 141 ng·h/mL; AUC(0-t) ([4]; male, Sprague Dawley, rat, plasma, sc, 0.992 mg/kg, individual animals): 140 ng·h/mL; half-life ([4]; male, Sprague Dawley, rat, plasma, sc, 0.992 mg/kg, mean (n = 2), outlier excluded, read-out: Apparent t1/2 (converted)): 1.09 h; IC50 (human 5-HT2A): < 500 nM; half-life at 2 μM ([5]; male, mouse, microsomes): 1.16 h; microsomal CLint at 2 μM ([5]; male, mouse, microsomes): 19.9 µL/min/mg; Remaining Percentage (%) after 60 min Mouse ([5]; mouse liver microsomes, with NADPH, 2 μM): 55.00%

From patent US20240166630A1, “INDOLE DERIVATIVES AS SEROTONERGIC AGENTS USEFUL FOR THE TREATMENT OF DISORDERS RELATED THERETO” (Mindset Pharma Inc., priority 2021, published 2024)
